Consider 1 molecule from paper PMC12615518, “Discovery of CRBN-recruiting PROTAC degraders of the METTL3-METTL14 complex” (Medicinal Chemistry Research, 2025).

“Also recorded” adds a separate entry of the source.

One data set deals with T1, METTL14 (Homo sapiens, UniProt Q9HCE5).
T1 construct: Following treatment, total cellular proteins were extracted using RIPA buffer; endogenous in cells; host or cells: MV4-11 (MV4.11) human AML cells, ATCC
Briefly: Immunoblotting (Western blot) degradation of METTL14 in MV4-11 cells. In kind it is cell-based. As for the experimental part:
All cell lines were maintained under standard conditions in a humidified atmosphere at 37 °C with 5% CO₂.
Western Blot Analysis: Following treatment, total cellular proteins were extracted using RIPA buffer (Auragene, Changsha, China). […] After washing, membranes were incubated with horseradish peroxidase (HRP)-conjugated secondary antibodies (anti-rabbit or anti-mouse IgG; 1:5000) for 2 hours at room temperature. Protein bands were visualized using an enhanced chemiluminescence (ECL) detection kit (Amersham Pharmacia), following the manufacturer's protocol. Band intensities were quantified using ImageJ software and normalized to ACTIN as a loading control. Data was analyzed using GraphPad Prism 9.
On the technique in general: Immunoblotting shows a protein as a band on a membrane.

The target of the next data set is T2, METTL3-METTL14 complex (Homo sapiens, UniProt Q86U44).
T2 construct: endogenous in cells; host or cells: MV4-11 human AML cells, ATCC
T2 sequence (Q86U44 2-580 limits assumed): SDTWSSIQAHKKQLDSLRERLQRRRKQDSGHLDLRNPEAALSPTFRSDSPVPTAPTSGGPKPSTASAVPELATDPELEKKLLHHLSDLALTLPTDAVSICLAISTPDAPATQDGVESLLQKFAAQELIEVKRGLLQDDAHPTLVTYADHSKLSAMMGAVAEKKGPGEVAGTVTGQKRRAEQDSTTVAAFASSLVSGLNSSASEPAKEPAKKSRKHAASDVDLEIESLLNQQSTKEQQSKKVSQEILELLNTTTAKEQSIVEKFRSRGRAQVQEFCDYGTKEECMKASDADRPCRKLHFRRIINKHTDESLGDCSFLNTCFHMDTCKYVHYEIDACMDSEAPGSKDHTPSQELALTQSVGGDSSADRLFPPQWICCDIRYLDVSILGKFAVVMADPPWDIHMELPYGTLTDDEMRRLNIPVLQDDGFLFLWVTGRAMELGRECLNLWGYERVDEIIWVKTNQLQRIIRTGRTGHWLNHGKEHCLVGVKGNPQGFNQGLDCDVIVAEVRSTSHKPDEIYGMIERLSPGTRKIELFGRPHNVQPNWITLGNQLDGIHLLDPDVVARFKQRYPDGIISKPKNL
T2 sequence (Q9HCE5 whole entry partner): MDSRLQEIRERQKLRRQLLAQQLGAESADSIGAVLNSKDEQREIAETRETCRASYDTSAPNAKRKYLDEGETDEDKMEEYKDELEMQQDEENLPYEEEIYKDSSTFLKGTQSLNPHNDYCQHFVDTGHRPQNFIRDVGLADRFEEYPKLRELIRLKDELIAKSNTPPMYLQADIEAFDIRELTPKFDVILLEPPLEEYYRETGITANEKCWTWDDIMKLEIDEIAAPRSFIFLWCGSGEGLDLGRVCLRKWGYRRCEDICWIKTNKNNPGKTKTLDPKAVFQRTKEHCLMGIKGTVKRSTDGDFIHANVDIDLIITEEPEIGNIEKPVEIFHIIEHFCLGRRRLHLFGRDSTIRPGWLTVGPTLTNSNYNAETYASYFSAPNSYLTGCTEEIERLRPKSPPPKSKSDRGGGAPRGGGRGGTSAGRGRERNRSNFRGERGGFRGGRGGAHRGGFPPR
In words: Washout experiment in MV4-11 cells, Western blot. In kind it is cell-based. The conditions noted are these: 1 µM for 20 h, then drug withdrawal 0 to 24 h. As for the experimental part: To further characterize this compound, MV4-11 AML cells were treated with ZW30441 across a range of concentrations for 24 h.
Fig. 3 ZW30441 induced degradation of METTL3 and METTL14 in a dose- and time-dependent manner. […] METTL3 and METTL14 protein levels were normalized against ACTIN and plotted for DC50 and Dmax determination (right). B The levels of METTL3 and METTL14 protein in MV4-11 cells were analyzed by Western blots after the treatment of 1 µM of ZW30441 for various durations. C METTL3 and METTL14 protein levels were analyzed by Western blots in MV4-11 cells after treatment with 1 µM of ZW30441 for 20 h followed by drug withdrawal and cultured without ZW30441 for 0 to 24 h, as indicated TEXT PRINTED IN THE PICTURE: (A) ZW30441: METTL3 levels: DC50=0.44 uM; METTL3 levels: Dmax= 68.7%; METTL14 levels: DC50=0.13 uM; METTL14 levels: Dmax= 74.1% DOUBTS OF THE COPYIST ABOUT THIS PICTURE: ZW30441, panel A, axis title of the right plot: last letter unclear, 'METTL14 levels' or 'METTL14 levela'
Western Blot Analysis: Following treatment, total cellular proteins were extracted using RIPA buffer (Auragene, Changsha, China). Equal amounts of protein were separated by 12% SDS-PAGE and transferred onto PVDF membranes (Thermo Fisher, USA, LC2002). […] Band intensities were quantified using ImageJ software and normalized to ACTIN as a loading control. Data was analyzed using GraphPad Prism 9. […]

The next data set deals with MV4-11 cells. Briefly: Cell proliferation assay in MV4-11 cells. In kind it is cell-based, human. The conditions noted are these: 5 µM, 4-day period. The procedure:
We proceeded to evaluate the cytotoxic activities of ZW30441 in AML cell lines by treating MOLM13 and MV4-11 cells with ZW30441 in increasing doses for 72 h.
Cell Proliferation Assay: To assess cell growth, 1×10⁵ cells were seeded per well in 24-well plates in triplicate and treated with 5 µM concentrations of the test compounds. The culture medium containing the compounds was refreshed every 48 hours, and cell densities were maintained below 1×10⁶ cells/mL through periodic dilution. Cell numbers were measured every other day over a 4-day period using a DS-11 automated cell counter (DeNovix, USA).

Data set [1] can be described thus: Metabolic stability in human liver microsomes. In kind it is in vitro ADME. The conditions noted are these: NADPH, 37 °C. The procedure:
To evaluate the potential for advancing this compound to in vivo studies, the in vitro metabolic stability of this compound was determined in human liver microsomes. […] The flexible linker could then be one potential reason for overall metabolic instability. With this knowledge in hand, further optimization of the lead compound would be necessary before beginning in vivo studies. One potential approach is to introduce more rigid linker systems, thereby reducing molecular flexibility to enhance the metabolic stability while continuing to improve potency.
Materials for Microsomal Stability: Reagent-grade KH2PO4, K2HPO4, acetonitrile, methanol, and formic acid (LC-MS grade) were purchased from Fisher Scientific. Phenacetin (≥98% purity) and verapamil (≥98% purity) were obtained from Sigma-Aldrich. Reduced nicotinamide adenine dinucleotide phosphate (NADPH) and human liver microsomes (Lot No # 1210270) were obtained from MP Biomedicals and BioIVT, respectively. Ultrapure water was used for analysis.
Metabolic Stability: Metabolic stability was assessed using male human liver microsomes. ZW30441 was incubated at a concentration of 1 µM with 1 mg/mL of microsomal protein in 50 mM phosphate buffer (pH 7.4). […] Following protein precipitation, the samples were filtered using a Solvinert 96-well plate, centrifuged at 2000 rpm, and analyzed by LC–MS/MS. […]
A general note: Liver microsomes are vesicles of endoplasmic reticulum, rich in cytochrome P450 enzymes.

T1 sequence (Q9HCE5 whole entry): as the sequence (Q9HCE5 whole entry partner) above
T1 sequence (Q86U44 2-580 partner): as the sequence (Q86U44 2-580 limits assumed) above

As a reminder, the Dmax is the greatest extent of degradation seen. One may read the DC50 as the concentration at which degradation of the target reaches its halfway point. A low value points to degradation at low concentration. In turn, `CC1(C)CCN(Cc2cc(F)c(N3CC(=O)NC4(CCN(c5cc(NCCCCCCCCCC(=O)N6CCN(c7ccc8c(c7)CN(C7CCC(=O)NC7=O)C8=O)CC6)ncn5)CC4)C3)cc2F)CC1` (stereo not shown) [Compound 4j, 3-(5-(4-(10-((6-(4-(4-((4,4-dimethylpiperidin-1-yl)methyl)-2,5-difluorophenyl)-2-oxo-1,4,9-triazaspiro[5.5]undecan-9-yl)pyrimidin-4-yl)amino)decanoyl)piperazin-1-yl)-1-oxoisoindolin-2-yl)piperidine-2,6-dione] gave a maximal degradation (Dmax) at METTL14 (MV4-11, MV4-11 cells, 24 h) of 65%. The “% reduction in MV4-11 cells, 0.3 µM, METTL14” value on METTL14 (MV4-11 cells, 0.3 µM, 24 h, immunoblotting, nd = no degradation) stood at 56%. The “% reduction in MV4-11 cells, 1.0 µM, METTL14” value on METTL14 (MV4-11 cells, 1.0 µM, 24 h, immunoblotting, nd = no degradation) was 77%. Further, half-maximal degradation at METTL14 (MV4-11 cells, 24 h, Western blot normalized against ACTIN) (DC50) was put at 130 nM. On METTL14 (MV4-11 cells, time course at 1 µM), the “time of maximum degradation of METTL14” value is given as 20 h. For the same molecule, the “duration of degradation after removal of compound (washout)” value at METTL3-METTL14 complex is “around 24 h”. For the same molecule, the figures for the “anti-proliferation activity compared to STM2457 and UZH2” value with MV4-11 cells and in the data set on MV4-11 cells (listed as ZW30441) were “enhanced cytotoxicity” and “more potent anti-proliferation activity; also recorded: superior cellular activity”, respectively. For the same molecule, in data set [1] (1 µM, 1 mg/mL microsomal protein), the “intrinsic clearance (Clint) in human liver microsomes” value is reported as 152.1 ± 26.1 uL/min/mg of protein. For the same molecule, the half-life at 1 µM in data set [1] (male, human, liver microsomes, pH 7.4, 1 mg/mL microsomal protein, read-out: half-life (T1/2) in human liver microsomes) worked out at 4.6 ± 0.7 min.
